Molecular target: T1, SIRT1 (Homo sapiens, UniProt Q96EB6)
T1 sequence (Q96EB6 1-747): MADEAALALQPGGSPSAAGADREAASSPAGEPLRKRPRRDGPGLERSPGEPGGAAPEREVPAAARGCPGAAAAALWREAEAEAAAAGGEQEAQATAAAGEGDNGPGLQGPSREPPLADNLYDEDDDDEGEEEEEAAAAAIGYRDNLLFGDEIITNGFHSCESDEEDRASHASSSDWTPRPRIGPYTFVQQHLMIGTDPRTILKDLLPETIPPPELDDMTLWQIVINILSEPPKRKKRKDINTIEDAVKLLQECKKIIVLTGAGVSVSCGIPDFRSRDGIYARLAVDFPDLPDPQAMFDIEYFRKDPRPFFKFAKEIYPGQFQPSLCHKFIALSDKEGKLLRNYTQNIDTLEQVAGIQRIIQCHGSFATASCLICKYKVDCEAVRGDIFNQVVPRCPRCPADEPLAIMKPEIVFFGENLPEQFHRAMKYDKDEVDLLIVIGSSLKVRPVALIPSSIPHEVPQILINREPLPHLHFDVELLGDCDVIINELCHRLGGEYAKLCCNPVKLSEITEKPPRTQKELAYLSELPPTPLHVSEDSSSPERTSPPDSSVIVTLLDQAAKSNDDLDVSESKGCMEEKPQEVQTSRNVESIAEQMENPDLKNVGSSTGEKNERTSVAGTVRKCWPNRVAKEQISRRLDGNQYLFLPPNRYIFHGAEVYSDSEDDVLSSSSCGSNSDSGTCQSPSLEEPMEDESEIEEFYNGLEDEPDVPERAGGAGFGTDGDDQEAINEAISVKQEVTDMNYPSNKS
Experiment: Mass spectrometry based assay to identify modulators (activators) of SIRT1 activity
Assay type: biochemical
Settings: 0.5 μM peptide substrate, 120 μM βNAD+, 10 nM SIRT1, 25 minutes at 25° C.; for EC1.5: SIRT1 activation
Excerpt: A mass spectrometry based assay was used to identify modulators of SIRT1 activity. The mass spectrometry based assay utilizes a peptide having 20 amino acid residues as follows: Ac-EE-K(biotin)-GQSTSSHSK(Ac)NleSTEG-K(5TMR)-EE-NH2 (SEQ ID NO: 1) wherein K(Ac) is an acetylated lysine residue and Nle is a norleucine. The peptide is labeled with the fluorophore 5TMR (excitation 540 nm/emission 580 nm) at the C-terminus. The sequence of the peptide substrate is based on p53 with several modifications. In addition, the methionine residue naturally present in the sequence was replaced with the norleucine because the methionine may be susceptible to oxidation during synthesis and purification.
The mass spectrometry assay is conducted as follows: 0.5 μM peptide substrate and 120 μM βNAD^+ is incubated with 10 nM SIRT1 for 25 minutes at 25° C. in a reaction buffer (50 mM Tris-acetate pH 8, 137 mM NaCl, 2.7 mM KCl, 1 mM MgCl2, 5 mM DTT, 0.05% BSA). Test compounds may be added to the reaction as described above. […] After the 25 minute incubation with SIRT1, 10 μL of 10% formic acid is added to stop the reaction. Reactions are sealed and frozen for later mass spec analysis. Determination of the mass of the substrate peptide allows for precise determination of the degree of acetylation (i.e. starting material) as compared to deacetylated peptide (product).
A control for inhibition of sirtuin activity is conducted by adding 1 μL of 500 mM nicotinamide as a negative control at the start of the reaction (e.g., permits determination of maximum sirtuin inhibition). A control for activation of sirtuin activity is conducted using 10 nM of sirtuin protein, with 1 μL of DMSO in place of compound, to determine the amount of deacetylation of the substrate at a given timepoint within the linear range of the assay. This timepoint is the same as that used for test compounds and, within the linear range, the endpoint represents a change in velocity.
For the above assay, SIRT1 protein was expressed and purified as follows. […] The protein was expressed by induction with 1 mM IPTG as an N-terminal His-tag fusion protein at 18° C. overnight and harvested at 30,000×g. Cells were lysed with lysozyme in lysis buffer (50 mM Tris-HCl, 2 mM Tris[2-carboxyethyl]phosphine (TCEP), 10 μM ZnCl2, 200 mM NaCl) and further treated with sonication for 10 min for complete lysis. The protein was purified over a Ni-NTA column (Amersham) and fractions containing pure protein were pooled, concentrated and run over a sizing column (Sephadex S200 26/60 global). The peak containing soluble protein was collected and run on an Ion-exchange column (MonoQ). Gradient elution (200 mM-500 mM NaCl) yielded pure protein. This protein was concentrated and dialyzed against dialysis buffer (20 mM Tris-HCl, 2 mM TCEP) overnight. The protein was aliquoted and frozen at −80° C. until further use.
Sirtuin modulating compounds that activated SIRT1 were identified using the assay described above and are shown below in Table 1. The EC1.5 values for the activating compounds are represented by A (EC1.5≦1 uM), B (EC1.5>1 and ≦10 uM), or C (EC1.5>10 uM). The percent maximum fold activation is represented by A (Fold activation≧300%), B (Fold Activation≧150% and <300%), or C (Fold Activation<150%).

Row | FOLD ACT. (percent maximum fold activation) | EC1.5 | SMILES
1 | A (Fold activation≧300%) | A (EC1.5≦1 uM) | COCCN1CCN(Cc2sc(-c3ccccc3)nc2C(=O)Nc2ccccc2-c2nc3cccnc3s2)CC1 [Compound 12, 5-((4-(2-methoxyethyl)piperazin-1-yl)methyl)-2-phenyl-N-(2-(thiazolo[5,4-b]pyridin-2-yl)phenyl)thiazole-4-carboxamide]
2 | B (Fold Activation≧150% and <300%) | A (EC1.5≦1 uM) | COCCN1CCN(Cc2cnc3sc(-c4ccccc4NC(=O)c4nc(-c5ccccc5)oc4C)nc3c2)CC1 [Compound 15, N-(2-(6-((4-(2-methoxyethyl)piperazin-1-yl)methyl)thiazolo[5,4-b]pyridin-2-yl)phenyl)-5-methyl-2-phenyloxazole-4-carboxamide]
3 | B (Fold Activation≧150% and <300%) | A (EC1.5≦1 uM) | O=C(Nc1ccccc1-c1nc2cccnc2s1)c1nc(-c2ccccc2)sc1CN1CCOCC1 [Compound 10, 5-(morpholinomethyl)-2-phenyl-N-(2-(thiazolo[5,4-b]pyridin-2-yl)phenyl)thiazole-4-carboxamide]
4 | B (Fold Activation≧150% and <300%) | B (EC1.5>1 and ≦10 uM) | O=C(Nc1ccccc1-c1nc2cccnc2s1)c1nc(-c2ccccc2)oc1CN1CCCC1 [Compound 20, 2-phenyl-5-(pyrrolidin-1-ylmethyl)-N-(2-(thiazolo[5,4-b]pyridin-2-yl)phenyl)oxazole-4-carboxamide]
5 | C (Fold Activation<150%) | B (EC1.5>1 and ≦10 uM) | O=C(Nc1ccccc1-c1nc2cccnc2s1)c1nc(-c2ccccc2)sc1CN1CCCC1 [Compound 11, 2-phenyl-5-(pyrrolidin-1-ylmethyl)-N-(2-(thiazolo[5,4-b]pyridin-2-yl)phenyl)thiazole-4-carboxamide]
6 | B (Fold Activation≧150% and <300%) | A (EC1.5≦1 uM) | O=C(Nc1ccccc1-c1nc2cc(CN3CCOCC3)cnc2s1)c1nc(-c2ccccc2)cs1 [Compound 24, N-(2-(6-(morpholinomethyl)thiazolo[5,4-b]pyridin-2-yl)phenyl)-4-phenylthiazole-2-carboxamide]
7 | A (Fold activation≧300%) | B (EC1.5>1 and ≦10 uM) | Cc1oc(-c2ccccc2)nc1C(=O)Nc1ccccc1-c1nc2cc(CN3CCCC3)cnc2s1 [Compound 17, 5-methyl-2-phenyl-N-(2-(6-(pyrrolidin-1-ylmethyl)thiazolo[5,4-b]pyridin-2-yl)phenyl)oxazole-4-carboxamide]
